Measured values published in patent publication US10064863B2, “Formulations of 3-(5-amino-2-methyl-4-oxo-4H-quinazolin-3-yl)-piperidine-2,6-dione” (Celgene Corporation, priority 2015, dated 2018).

Assay: Degradation of Compound A by hydrolysis
Assay type: physicochemical
From the text: In another aspect is an anhydrous pharmaceutical composition and dosage form. Such anhydrous forms can reduce or eliminate degradation of active ingredients in the composition resulting from heat or water exposure. For example, the addition of water (e.g., 5 percent) is widely accepted in the pharmaceutical arts as a means of simulating shelf-life, e.g., long-term storage in order to determine characteristics such as shelf-life or the stability of formulations over time. See, e.g., Jens T. Carstensen, Drug Stability: Principles & Practice, 2d. Ed., Marcel Dekker, NY, N.Y., 1995, pp. 379-80. The effect of water on a formulation can be of great significance since moisture or humidity are commonly encountered during manufacture, handling, packaging, storage, shipment, and use of formulations.

Cc1nc2cccc(N)c2c(=O)n1C1CCC(=O)NC1=O (stereo not shown) [Compound A, 3-(5-amino-2-methyl-4-oxo-4H-quinazolin-3-yl)-piperidine-2,6-dione]
degradation by hydrolysis: easily degraded by hydrolysis
